Patent publication US10980809B2, “Urea-substituted aromatic ring-linked dioxane-quinazoline and -linked dioxane-quinoline compounds, preparation method therefor and use thereof” (BEIJING SCITECH-MQ PHARMACEUTICALS LIMITED, priority 2017, dated 2021)

Experiments:
[1] = molecular target: C-RAF (Homo sapiens (Human), UniProt P04049); assay: Test of small molecule compounds for inhibiting the activity of C-RAF kinase (ADP-Glo)
[2] = tested on: HepG2 liver cancer cell line; assay: Cell survival assay (CCK-8), HepG2; format: cell-based; settings: Homo sapiens, HepG2 cells, 72 h incubation
Method: (§1) Biological Example 3. Cell Survival Assay for Small Molecule Compounds
(§2) The specific procedure was carried out as follows:
(§3) 1. 600 μL of trypsin was added to a T75 cell culture flask, it was digested in a 37° C. incubator for about 1 min, then 5 mL of DMEM complete medium was added, which was blowed evenly, transferred to a 15 mL centrifuge tube, and centrifuged at 1000 rpm for 4 min;
(§4) 2. The supernatant was discarded, 5 mL of DMEM complete medium was added, which was blowed evenly, and then mixed with 10 μL of cell suspension and 10 μL of 0.4% trypan blue, and reading was recorded using a cell counter;
(§5) 3. Cells of […] different cell lines (MHCC97H, HuH7, HepG2, A549, 8505C) were seeded in 96-well plates at a cell density of 6000 cells/80 μL of complete medium/well, and cultured overnight. Only sterile water was added in the outer 36 wells of the 96-well plates, and the remaining inside 60 wells were used for cell experiments and controls;
(§6) 4. Dilution of compounds: a total of 10 concentrations of the compounds were obtained using a 3-fold dilution from the starting concentration of 10 mM.
(§7) 5. 20 μL of different compounds in different concentrations were added to each corresponding well, and the remaining wells were added with 20 μL of complete medium, the plate was shaked, and the concentration of DMSO in each well is 0.25%.
(§8) 6. After incubation for 72 h, 10 μL of CCK-8 reagent was added to each well, and cultured at 37° C. for 1-2 h; the OD value was read at 450 nm.
(§9) 7. Cell Viability (%)=[(As−Ab)/(Ac−Ab)]*100% • As: Experimental well (medium containing cells, CCK-8, compound) • Ac: Control well (medium containing cells, CCK-8) • Ab: Blank well (medium without cell and compound, CCK-8)
(§10) Table (3) lists the determination results of the activity of representative compounds of the present disclosure against various cancer cells, wherein MHCC97H, HuH7, and HepG2 are liver cancer cell lines, A549 is a lung cancer cell line, and 8505C is a thyroid cancer cell line.

[3] = molecular target: VEGFR-2 kinase (Homo sapiens (Human), UniProt P35968); assay: Test of small molecule compounds for inhibiting the activity of VEGFR-2 kinase; format: biochemical; settings: class symbols A-D
Procedure, shortened: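 Kinase pre-incubated with diluted compounds for 30 min at room temperature, then substrate/ATP mix added and reaction run 60 min at room temperature in the dark […]. Signal read on a plate reader.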

[4] = tested on: 8505C thyroid cancer cell line; assay: Cell survival assay (CCK-8), 8505C; format: cell-based; settings: Homo sapiens, 8505C cells, 72 h incubation
Method: as §1, §2, §3, §4, §5, §6, §7, §8, §9, §10

[5] = molecular target: B-RAF (Homo sapiens (Human), UniProt P15056); assay: Test of small molecule compounds for inhibiting the activity of B-RAF kinase (ADP-Glo)
[6] = tested on: MHCC97H liver cancer cell line; assay: Cell survival assay (CCK-8), MHCC97H; format: cell-based; settings: Homo sapiens, MHCC97H cells, 72 h incubation
Method: as §1, §2, §3, §4, §5, §6, §7, §8, §9, §10

[7] = tested on: HuH7 liver cancer cell line; assay: Cell survival assay (CCK-8), HuH7; format: cell-based; settings: Homo sapiens, Huh-7, HuH7 cells, 72 h incubation
Method: as §1, §2, §3, §4, §5, §6, §7, §8, §9, §10

[8] = tested on: A549 lung cancer cell line; assay: Cell survival assay (CCK-8), A549; format: cell-based; settings: Homo sapiens, A549 cells, 72 h incubation
Method: as §1, §2, §3, §4, §5, §6, §7, §8, §9, §10

Chain of VEGFR-2 kinase (P35968 20-1356): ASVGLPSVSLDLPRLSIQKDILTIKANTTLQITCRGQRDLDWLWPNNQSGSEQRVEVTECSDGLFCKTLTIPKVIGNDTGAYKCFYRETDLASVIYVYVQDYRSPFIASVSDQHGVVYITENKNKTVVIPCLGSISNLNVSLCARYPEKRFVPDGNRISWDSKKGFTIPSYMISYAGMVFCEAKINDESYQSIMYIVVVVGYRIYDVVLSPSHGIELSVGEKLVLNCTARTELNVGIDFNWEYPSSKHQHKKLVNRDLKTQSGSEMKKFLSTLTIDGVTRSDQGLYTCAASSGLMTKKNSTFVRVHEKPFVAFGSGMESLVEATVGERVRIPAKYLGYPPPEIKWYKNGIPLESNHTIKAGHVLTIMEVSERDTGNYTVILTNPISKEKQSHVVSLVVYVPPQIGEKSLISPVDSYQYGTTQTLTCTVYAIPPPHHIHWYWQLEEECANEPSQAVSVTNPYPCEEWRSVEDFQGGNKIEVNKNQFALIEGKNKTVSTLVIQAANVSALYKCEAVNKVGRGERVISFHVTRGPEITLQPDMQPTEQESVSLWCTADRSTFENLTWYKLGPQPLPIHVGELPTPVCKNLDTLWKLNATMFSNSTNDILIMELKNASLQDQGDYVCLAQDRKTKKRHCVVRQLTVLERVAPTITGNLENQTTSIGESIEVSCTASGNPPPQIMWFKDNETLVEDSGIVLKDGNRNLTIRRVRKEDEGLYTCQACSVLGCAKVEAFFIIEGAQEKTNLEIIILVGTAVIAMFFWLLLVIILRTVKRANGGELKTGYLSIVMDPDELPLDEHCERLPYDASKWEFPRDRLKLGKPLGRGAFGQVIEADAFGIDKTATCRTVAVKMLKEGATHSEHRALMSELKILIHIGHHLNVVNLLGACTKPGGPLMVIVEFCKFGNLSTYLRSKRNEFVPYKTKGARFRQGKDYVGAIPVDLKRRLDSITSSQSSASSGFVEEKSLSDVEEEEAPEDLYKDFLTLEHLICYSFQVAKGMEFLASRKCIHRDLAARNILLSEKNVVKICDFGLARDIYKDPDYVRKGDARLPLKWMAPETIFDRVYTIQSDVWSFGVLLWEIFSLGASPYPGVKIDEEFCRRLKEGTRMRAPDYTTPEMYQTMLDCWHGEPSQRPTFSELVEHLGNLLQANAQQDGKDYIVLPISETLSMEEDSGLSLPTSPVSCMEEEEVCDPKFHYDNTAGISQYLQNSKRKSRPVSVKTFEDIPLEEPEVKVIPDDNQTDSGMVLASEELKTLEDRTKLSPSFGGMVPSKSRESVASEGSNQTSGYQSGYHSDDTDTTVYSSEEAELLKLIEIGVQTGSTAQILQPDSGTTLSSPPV
Chain of B-RAF (P15056 whole entry): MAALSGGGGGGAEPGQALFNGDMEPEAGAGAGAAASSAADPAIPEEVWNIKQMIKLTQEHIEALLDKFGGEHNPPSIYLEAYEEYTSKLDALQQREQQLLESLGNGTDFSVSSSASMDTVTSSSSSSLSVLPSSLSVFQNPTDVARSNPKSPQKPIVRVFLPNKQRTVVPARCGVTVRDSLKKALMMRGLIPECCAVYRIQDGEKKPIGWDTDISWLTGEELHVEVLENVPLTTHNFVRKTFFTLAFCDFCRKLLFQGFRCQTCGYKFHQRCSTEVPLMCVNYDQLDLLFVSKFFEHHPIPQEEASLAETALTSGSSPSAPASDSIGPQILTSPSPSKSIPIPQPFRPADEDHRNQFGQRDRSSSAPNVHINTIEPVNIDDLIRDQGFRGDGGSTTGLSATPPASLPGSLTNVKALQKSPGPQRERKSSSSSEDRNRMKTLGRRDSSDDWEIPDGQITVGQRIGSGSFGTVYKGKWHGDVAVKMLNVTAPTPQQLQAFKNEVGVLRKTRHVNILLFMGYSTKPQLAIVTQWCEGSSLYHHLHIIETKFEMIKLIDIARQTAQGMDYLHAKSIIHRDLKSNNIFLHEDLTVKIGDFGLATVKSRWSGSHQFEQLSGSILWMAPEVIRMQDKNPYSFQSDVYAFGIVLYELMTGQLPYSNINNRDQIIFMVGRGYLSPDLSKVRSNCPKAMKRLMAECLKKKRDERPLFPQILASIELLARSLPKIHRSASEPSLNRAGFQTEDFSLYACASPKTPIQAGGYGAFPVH
Chain of C-RAF (P04049 whole entry): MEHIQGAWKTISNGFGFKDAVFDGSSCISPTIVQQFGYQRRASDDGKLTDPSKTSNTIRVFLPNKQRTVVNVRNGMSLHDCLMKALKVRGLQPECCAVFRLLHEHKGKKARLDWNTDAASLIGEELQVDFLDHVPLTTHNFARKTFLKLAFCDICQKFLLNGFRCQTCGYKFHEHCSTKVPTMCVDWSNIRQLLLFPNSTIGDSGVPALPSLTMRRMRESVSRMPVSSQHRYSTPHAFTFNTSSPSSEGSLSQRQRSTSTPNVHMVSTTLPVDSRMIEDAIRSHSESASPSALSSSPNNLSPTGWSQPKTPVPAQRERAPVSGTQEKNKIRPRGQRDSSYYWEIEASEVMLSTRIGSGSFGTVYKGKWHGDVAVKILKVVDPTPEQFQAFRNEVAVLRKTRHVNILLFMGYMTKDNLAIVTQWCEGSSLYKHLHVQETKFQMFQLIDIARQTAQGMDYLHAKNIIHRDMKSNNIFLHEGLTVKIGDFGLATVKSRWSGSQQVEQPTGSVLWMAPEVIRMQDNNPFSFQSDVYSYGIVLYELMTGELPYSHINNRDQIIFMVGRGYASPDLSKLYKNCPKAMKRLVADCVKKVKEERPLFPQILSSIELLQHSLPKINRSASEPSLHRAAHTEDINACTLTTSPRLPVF

SMILES | IC50 [1] [nM] | IC50 [3] [nM] | IC50 [5] [nM] | IC50 [2] [nM] | IC50 [4] [nM] | IC50 [6] [nM] | IC50 [7] [nM] | IC50 [8] [nM]
COc1cc2ncnc(Oc3ccc(NC(=O)Nc4cc(C(F)(F)F)ccc4F)cc3)c2c2c1OCCO2 [Example 20, 1-(2-fluoro-5-(trifluoromethyl)phenyl)-3-(4-((5-methoxy-2,3-dihydro-[1,4]dioxino[2,3-f]quinazolin-10-yl)oxy)phenyl)urea] | […] | […] | […] | 302 | 20.3 | 1720 | 856 | 1120
COCCOc1cc2ncnc(Oc3ccc(NC(=O)Nc4cc(C(F)(F)F)ccc4F)cc3)c2c2c1OCCO2 [Example 47, 1-(2-fluoro-5-(trifluoromethyl)phenyl)-3-(4-((5-(2-methoxyethoxy)-2,3-dihydro-[1,4]dioxino[2,3-f]quinazolin-10-yl)oxy)phenyl)urea] | […] | […] | […] | 123 | 5.35 | 714 | 585 | 194
COc1cc2ncnc(Oc3ccc(NC(=O)Nc4ccc(Cl)c(C(F)(F)F)c4)cc3)c2c2c1OCCO2 [Example 18, 1-(4-chloro-3-(trifluoromethyl)phenyl)-3-(4-((5-methoxy-2,3-dihydro-[1,4]dioxino[2,3-f]quinazolin-10-yl)oxy)phenyl)urea] | 200 to 500 | < 50 | 200 to 500 | 1740 | 23.2 | > 2500 | 1330 | 1040

More lines, main results first:

IC50 [1] [nM] | IC50 [3] [nM] | IC50 [5] [nM] | SMILES | IC50 [2] [nM] | IC50 [4] [nM] | IC50 [6] [nM] | IC50 [7] [nM] | IC50 [8] [nM]
500 to 1000 | < 50 | 500 to 1000 | COCCOc1cc2ncnc(Oc3ccc(NC(=O)Nc4ccc(Cl)c(C(F)(F)F)c4)cc3)c2c2c1OCCO2 [Example 46, 1-(4-chloro-3-(trifluoromethyl)phenyl)-3-(4-((5-(2-methoxyethoxy)-2,3-dihydro-[1,4]dioxino[2,3-f]quinazolin-10-yl)oxy)phenyl)urea] | 2360 | 8.57 | > 2500 | 1260 | 428
200 to 500 | < 50 | < 200 | COCCOc1cc2ncnc(Oc3ccc(NC(=O)Nc4ccc(Cl)c(C(F)(F)F)c4)c(F)c3)c2c2c1OCCO2 [Example 48, 1-(4-chloro-3-(trifluoromethyl)phenyl)-3-(2-fluoro-4-((5-(2-methoxyethoxy)-2,3-dihydro-[1,4]dioxino[2,3-f]quinazolin-10-yl)oxy)phenyl)urea] | 926 | 21.9 | 1230 | 1270 | 590
